Laboratory results as given in ChEMBL document CHEMBL3813665, “New cytotoxic and anti-inflammatory steroids from the soft coral Klyxum flaccidum” (Bioorg Med Chem Lett, 2016).
pIC50: −log10 of the molar value.

Columns and labels:
[1] = Cytotoxicity against human DLD1 cells by Alamar blue assay; format: functional, cell-based; details: DLD-1
A549 = assay: Cytotoxicity against human A549 cells by Alamar blue assay; format: functional, cell-based
[2] = Antiinflammatory activity in human neutrophils assessed as inhibition of fMLP/CB-induced elastase release using MeO-Suc-Ala-Ala-Pro-Val-p-nitroanilide as substrate at 10 uM after 5 mins by […] analysis; format: functional; details: Neutrophil
[3] = Antiinflammatory activity in human neutrophils assessed as inhibition of fMLP/CB-induced superoxide anion generation at 10 uM after 5 mins by ferricytochrome c based spectrophotometric analysis; format: functional; details: Neutrophil
K562 = assay: Cytotoxicity against human K562 cells by Alamar blue assay; format: functional, cell-based
P388 = assay: Cytotoxicity against mouse P388 cells by Alamar blue assay; format: functional, cell-based
[4] = Antiinflammatory activity in human neutrophils assessed as inhibition of fMLP/CB-induced superoxide anion generation after 5 mins by ferricytochrome c based spectrophotometric analysis; format: functional, cell-based; details: Neutrophil
HT-29 = assay: Cytotoxicity against human HT-29 cells by Alamar blue assay; format: functional, cell-based
[5] = Antiinflammatory activity in human neutrophils assessed as inhibition of fMLP/CB-induced elastase release using MeO-Suc-Ala-Ala-Pro-Val-p-nitroanilide as substrate after 5 mins by […] analysis; format: functional, cell-based; details: Neutrophil

| pIC50 [4] | pIC50 [5] | Compound | pIC50 [1] | pIC50 (A549) | inhibition at 10 µM [2] [%] | inhibition at 10 µM [3] [%] | pIC50 (K562) | pIC50 (P388) | pIC50 (HT-29) |
| --- | --- | --- | --- | --- | --- | --- | --- | --- | --- |
| < 5.00 | < 5.00 | CC(C)[C@@H](C)[C@@]1(C)C[C@@H]1[C@@H](C)[C@H]1CC[C@H]2[C@H]3[C@H]([C@H](O)C[C@]12C)[C@@]1(C)CC[C@H](O)CC1=C[C@@H]3O | < 4.40 | < 4.40 | 21.8 | 11.1 | < 4.40 | < 4.40 | < 4.40 |
| < 5.00 | < 5.00 | CC(C)[C@@H](C)[C@@]1(C)C[C@@H]1[C@@H](C)[C@H]1CC[C@H]2[C@@H]3[C@@H](O)C=C4C[C@@H](O)CC[C@]4(C)[C@@]3(O)[C@H](O)C[C@]12C | < 4.40 | < 4.40 | 16.4 | -5.97 | < 4.40 | < 4.40 | < 4.40 |
| 5.25 | 5.36 | CC(C)[C@@H](C)[C@H](C)C[C@@](C)(O)C1=CC[C@H]2[C@@H]3CC=C4C[C@@H](O)CC[C@]4(C)[C@H]3[C@H](O)C[C@]12C | < 4.40 | < 4.40 | 114 | 76.3 | 4.90 | 4.83 | 4.82 |

Second part, the compound before the results:

| Compound | pIC50 [4] | pIC50 [5] | pIC50 [1] | pIC50 (A549) | inhibition at 10 µM [2] [%] | inhibition at 10 µM [3] [%] | pIC50 (K562) | pIC50 (P388) | pIC50 (HT-29) |
| --- | --- | --- | --- | --- | --- | --- | --- | --- | --- |
| CC(C)[C@@H](C)[C@@]1(C)C[C@@H]1[C@@H](C)[C@H]1CC[C@H]2[C@H]3[C@H]([C@H](O)[C@H](O)[C@]12C)[C@@]1(C)CC[C@H](O)CC1=C[C@@H]3O | – | – | < 4.40 | < 4.40 | – | – | < 4.40 | 4.81 | < 4.40 |
| COc1cccc2c1C(=O)c1c(O)c3c(c(O)c1C2=O)C[C@@](O)(C(=O)CO)C[C@@H]3O[C@H]1C[C@H](N)[C@H](O)[C@H](C)O1 [DOXORUBICIN] | – | – | 5.56 | 6.26 | – | – | 6.03 | 6.05 | 6.06 |
| O=c1cc(N2CCOCC2)oc2c(-c3ccccc3)cccc12 [LY-294002] | 5.44 | 5.29 | – | – | – | – | – | – | – |
